Data reported in PMC10291549, “Reaction Behavior of [1,3-Diethyl-4,5-diphenyl-1H-imidazol-2-ylidene] Containing Gold(I/III) Complexes against Ingredients of the Cell Culture Medium and the Meaning on the Potential Use for Cancer Eradication Therapy” (Journal of Medicinal Chemistry, 2023).
Where two headings read alike, the source gives them in different places.

Columns and labels:
[1] = system: A549-R cells (Taxol/Paclitaxel-resistant subclone); type: cell-based; conditions: 72 h incubation; mean ± SD of two or three independent experiments; read-out: metabolic activity IC50, A549-R
K562 cells = type: cell-based; conditions: 72 h incubation; mean ± SD of two or three independent experiments; read-out: metabolic activity IC50, K562
[2] = system: A2780cis cells (Cisplatin-resistant); type: cell-based, human; conditions: 72 h incubation; mean ± SD of two or three independent experiments; read-out: metabolic activity IC50, A2780cis
A549 cells = type: cell-based; conditions: 72 h incubation; mean ± SD of two or three independent experiments; read-out: metabolic activity IC50, A549
IGROV1 cells = type: cell-based; conditions: 72 h incubation; mean ± SD of two or three independent experiments; read-out: metabolic activity IC50, IGROV1
[3] = system: MCF-7TamR cells (Tamoxifen-resistant subline); type: cell-based, human; conditions: 72 h incubation; mean ± SD of two or three independent experiments; read-out: metabolic activity IC50, MCF-7TamR
A2780 cells = type: cell-based, human
[4] = HPLC degradation study in ACN/RPMI 1640 cell culture medium; conditions: for conversion to 5: ACN/RPMI 1640 50/50 (without FCS)
MCF-7 cells = type: cell-based, human; conditions: 72 h incubation; mean ± SD of two or three independent experiments; read-out: metabolic activity IC50, MCF-7
[5] = HPLC reactivity study in chloride containing ACN/water; type: physicochemical; conditions: for conversion to 5 / formation of 8: t0h (1.5 min); for conversion to 5: ACN/water 50/50, 6.0 g/L NaCl + 0.4 g/L KCl, 0.5 mM complex, rt
[6] = system: K562-R cells (Doxorubicin-resistant subclone); type: cell-based; conditions: 72 h incubation; mean ± SD of two or three independent experiments; read-out: metabolic activity IC50, K562-R
IGROV1-CSC cells = type: cell-based; conditions: 72 h incubation; mean ± SD of two or three independent experiments; read-out: metabolic activity IC50, IGROV1-CSC
[7] = HPLC reactivity study with non-thiol containing amino acids in ACN/water; type: physicochemical; conditions: for formation of 8: t24h, 0.5 mM
Description: (§1) All nucleophiles (chloride, amino acids, and GSH) were separately reacted with 5–11 in ACN/water = 50/50 (v/v) mixtures at a complex concentration 0.5 mM. This solvent composition was chosen to prevent precipitation of the complex and the formed degradation products.
(§2) Amino acids, as well as GSH, were used in 20-fold excess, as realized at a complex concentration of 10 μM in the cell culture medium. Thereto, the respective complex, dissolved in ACN (1 mM), was combined with the same amount of aqueous solution of the nucleophile (20 mM).
(§3) The mixture was then incubated for 24 h at rt and monitored at various time points via HPLC using an RP-C18 column and gradient elution (70/30 (v/v) to 90/10 (v/v)) of ACN/water (0.1% trifluoroacetic acid (TFA)).
(§4) Experiments in ACN/water: 1.0 mM solutions of the respective complex were prepared in ACN and diluted with HPLC-grade water (50/50, (v/v)) containing the double-concentrated amount of respective amino acid (20 mM), GSH (20 mM), sodium ascorbate (20 mM), or NADPH (20 mM). As a chloride source, an aqueous solution of KCl 0.8 g/L and NaCl 12 g/L was used. In each case, a final complex concentration of 0.5 mM was achieved. The solutions were incubated for 24 h at rt. For the experiments with RPMI 1640, the aqueous phase was replaced by a cell culture medium.
(§5) Samples (20 μL each) were taken at appropriate time points (t = 0 (1.5 min), 0.5, 1, 1.5, 2, 8, 12, and 24 h) and analyzed with a Shimadzu prominence HPLC system. The mobile phase consisted of ACN (HPLC-grade) and water (HPLC-grade) with 0.1% TFA. To achieve a separation of the compounds, gradient elution from (70/30 (v/v) to 90/10 (v/v)) of ACN/water (0.1% trifluoroacetic acid (TFA)) was used with a flow rate of 1 mL/min at an oven temperature of 35 °C. All solvents have been degassed before use. The injection volume was 20 μL, and the detection wavelength was set at 235 nm, to detect the gold complexes and the amino acids in the chromatogram.

[8] = FCS influence on stability of 7 in RPMI 1640 (protein binding, HPLC); type: in vitro ADME; conditions: 4 h, 37 °C
Description: The complex (conc. 30 μM) dissolved in RPMI 1640 medium supplemented with 10% FCS was incubated for 4 h at 37 °C in the dark. Subsequently, the proteins were precipitated with ACN and the supernatant was dried by lyophilization. The remaining complexes were extracted from the lyophilizate with DCM. The organic layer was evaporated, and the residue was finally dissolved in 1 mL of ACN. This solution was then analyzed by HPLC as described above.
To 11 mL of RPMI 1640 including 10% FCS, 11 μL of a freshly prepared 3 mM DMF solution of 7 was added. The solution was then incubated for 4 h at 37 °C in the dark. Proteins were precipitated with 33 mL of ACN. The mixture was cooled to −30 °C and stored for 2 h at −20 °C. Subsequently, the supernatant was separated by centrifugation (3000 rpm), collected, and dried by lyophilization. The lyophilizate was extracted three times with 5 mL of DCM and finally dried under reduced pressure. The residue was taken up in 1 mL of ACN, and 30 μL was analyzed by the HPLC method described above. Peak area was used for quantification. The calibrations of 5, 7, and 8 were obtained by injecting 30 μL of the respective solution of pure substances in ACN at a concentration of 1–30 μM (R^2 > 0.99).

[9] = HPLC reactivity study with GSH in ACN/water; type: physicochemical; conditions: 20 equiv GSH; for substitution to (NHC)Au(I)-GSH adduct 12: t0h (1.5 min)
Description: as §1, §2, §3, §4, §5

[10] = system: SV-80 lung fibroblast cells; test: Modified MTT assay in noncancerous cells; type: cell-based
[11] = 72 h incubation, mean ± SD of two or three independent experiments, read-out: metabolic activity IC50, A2780
[12] = t0h, ACN/RPMI 1640 50/50, 0.5 mM
[13] = t24h, ACN/RPMI 1640 50/50, 0.5 mM
[14] = t24h, chloride containing ACN/water 50/50, 0.5 mM
[15] = t0h, chloride containing ACN/water 50/50, 0.5 mM
[16] = chloride containing ACN/water 50/50, 0.5 mM

Row | Compound | IC50 [1] [nM] | IC50 (K562 cells) [nM] | IC50 [2] [nM] | IC50 (A549 cells) [nM] | IC50 (IGROV1 cells) [nM] | IC50 [3] [nM] | IC50 (A2780 cells; [11]) [nM] | formation of 8 [4, 12] [%] | formation of 8 [4, 13] [%] | IC50 (MCF-7 cells) [nM] | formation of 8 (ligand scrambling / reduction) [5, 14] [%] | IC50 [6] [nM] | IC50 (IGROV1-CSC cells) [nM] | other results
1 | CCn1c(-c2ccccc2)c(-c2ccccc2)n(CC)[c]1=[Au+]([Cl])([Cl])=[c]1n(CC)c(-c2ccccc2)c(-c2ccccc2)n1CC.F[P-](F)(F)(F)(F)F [Complex 9, Bis[1,3-diethyl-4,5-diphenyl-1H-imidazol-2-yliden]dichloridogold(III) Hexafluorophosphate] | 210 ± 20 | 550 ± 160 | 50 ± 20 | 180 ± 10 | 700 ± 380 | 260 ± 50 | 250 ± 40 | 5.0 | 36.3 | 240 ± 50 | 12.5 | 1430 ± 290 | 1740 ± 190 | 
2 | Bis[1,3-diethyl-4,5-diphenyl-1H-imidazol-2-ylidene]diiodidogold(III) Hexafluorophosphate [Complex 11] | 270 ± 40 | 970 ± 260 | 20 ± 10 | 250 ± 20 | 1280 ± 930 | 200 ± 70 | 280 ± 60 |  |  | 190 ± 50 |  | 2260 ± 1080 | 2450 ± 970 | time to complete conversion to 8 ([4]; ACN/RPMI 1640 50/50, 0.5 mM): ≤ 8 h; substitution to 9 [5, 15]: 0.4%
3 | Iodido[1,3-diethyl-4,5-diphenyl-1H-imidazol-2-ylidene]gold(I) [Complex 7] | 1210 ± 360 | 720 ± 300 | 400 ± 60 | 1120 ± 170 | 1940 ± 350 | 1630 ± 790 | 1430 ± 400 | 0.8 | 23.1 | 480 ± 80 | 18.9 | 1530 ± 1040 | 470 ± 130 | ratio of 7/8 ([7]; 20 equiv arginine (Arg), after 30 min, stable until 24 h): 90/10; reaction with amino acids ([7]; 20 equiv non-thiol containing amino acid, ACN/water 50/50): did not react; formation of 8 ([7]; 20 equiv glutamic acid (Glu), ACN/water 50/50): 31.6%; formation of 8 ([7]; 20 equiv methionine (Met), ACN/water 50/50): 27.5%; formation of 8 ([7]; pure ACN/water 50/50): 31.2%; concentration in the free fraction after incubation of 7 ([8]; 7 (30 μM) in RPMI 1640 + 10% FCS, dark, protein precipitation with ACN, from HPLC peak areas): 0.78 µM; protein-bound fraction ([8]; 7 and its degradation products in RPMI 1640 + 10% FCS): about 50%; amount of 5 formed ([4]; during 24 h, ACN/RPMI 1640 50/50): remained constant; conversion to 5 ([4]; t0h, 0.5 mM): 14.3%; formation of GSH-adduct 12 [4, 13]: No GSH-adduct 12 could be detected; conversion to 5 [5]: 13.3%; formation of 8 [5, 16]: 3.6%; quantity of 5 formed [5, 14]: stayed constant; start of ligand scrambling ([9]; time-dependent analysis): 1 h; substitution to (NHC)Au(I)-GSH adduct 12 ([9]; ACN/water 50/50, 0.5 mM): 9.7%; formation of 8 ([9]; t24h, ACN/water 50/50, 0.5 mM): 9.8%; proportion of 12 ([9]; t24h, ACN/water 50/50, 0.5 mM): 4.7%; metabolic activity (remaining) in SV-80 cells ([10]; at 1.5 μM): 77%
4 | CCn1c(-c2ccccc2)c(-c2ccccc2)n(CC)[c]1=[Au+]([Br])([Br])=[c]1n(CC)c(-c2ccccc2)c(-c2ccccc2)n1CC.F[P-](F)(F)(F)(F)F [Complex 10, Bis[1,3-diethyl-4,5-diphenyl-1H-imidazol-2-ylidene]dibromidogold(III) Hexafluorophosphate] | 250 ± 40 | 490 ± 120 | 100 ± 40 | 200 ± 20 | 440 ± 190 | 290 ± 180 | 290 ± 50 | 9.3 | 71.1 | 220 ± 70 | 5.1 | 1590 ± 300 | 1290 ± 230 | formation of 9 (Br/Cl exchange) [4, 12]: 42.3%; amount of 9 [4, 13]: 18.2%; remaining amount of the complex itself [4, 13]: 10.7%; formation of 8 [5, 16]: 2.2%; substitution to 9 [5, 15]: 24.0%; substitution to 9 [5, 14]: 54.4%
5 | Bromido[1,3-diethyl-4,5-diphenyl-1H-imidazol-2-ylidene]gold(I) [Complex 6] | > 10000 | > 10000 | 2870 ± 330 | > 10000 | 5780 ± 900 | 4640 ± 440 | 9380 ± 800 |  |  | 4540 ± 520 |  | > 10000 | 8780 ± 600 | conversion to 5 ([4]; t0h, 0.5 mM): immediately converted; conversion to 5 [5]: quantitatively; substitution to (NHC)Au(I)-GSH adduct 12 ([9]; ACN/water 50/50, 0.5 mM): quantitatively; metabolic activity (remaining) in SV-80 cells ([10]; at 10 μM, mean of three independent experiments): 20%
6 | N.N.[Cl][Pt][Cl] [Cisplatin, reference compound] | 6990 ± 570 | 7910 ± 780 | 9800 ± 640 | 6670 ± 630 | 2840 ± 760 | 4130 ± 590 | 6650 ± 1420 |  |  | 7180 ± 1280 |  | 9930 ± 770 | 3760 ± 400 | 
7 | CCn1c(-c2ccccc2)c(-c2ccccc2)n(CC)[c]1=[Au][S]C[C@H](NC(=O)CC[C@H](N)C(=O)O)C(=O)NCC(=O)O [Complex 12] |  |  |  |  |  |  |  |  |  |  |  |  |  | IC50 relative to 5 (and 6) in A2780 cells, times higher / fold less active (A2780 cells): about 2 fold; IC50 relative to 5 (and 6) in A2780 cells, times higher / fold less active (A2780 cells; listed as (NHC)Au(I)-GSH): 2 fold; IC50 (A2780 cells; preliminary experiment, read-out: cell growth IC50, A2780): 15900 nM
8 | CC(=O)OC[C@H]1O[C@@H]([S-])[C@H](OC(C)=O)[C@@H](OC(C)=O)[C@@H]1OC(C)=O.CCP(CC)CC.[Au+] [Auranofin, reference compound] | 4420 ± 440 | 3660 ± 270 |  | 4260 ± 450 |  | 1140 ± 460 |  |  |  | 3150 ± 360 |  | 3750 ± 380 |  | 
